Here are results for one compound from patent US11285144B2, “Use of CDK8 inhibitors to treat diseases of inflammation and autoimmunity” (THE BROAD INSTITUTE, INC., priority 2016, dated 2022).

“Also recorded” adds a separate entry of the source.

For one data set, the system named is R848-stimulated BMDCs. As to the kind of experiment: IL-10 mRNA levels in BMDCs following R848 stimulation. The format is cell-based, mouse. As to conditions: pre-treatment, then R848 stimulation. As for the experimental part:
FIG. 5—Cellular activities of the IL-10 hit BRD6989. […] (d) Effect of BRD6989 on IL-10 production in human DCs stimulated with R848 (each point corresponds to mean±S.D.; n=3 biological replicates from 1 independent experiment using cells derived from 1 donor). (e) Chemical structure of the pan-SIK inhibitor HG-9-91-01. (f) Effect of pre-treating BMDCs with HG-9-91-01 (0.5 μM) or BRD6989 (5 μM) on IL-10 mRNA levels following stimulation with R848 (each point corresponds to mean±S.D.; n=4 biological replicates from 1 independent experiment; *, P<0.05; ***, P<0.001 using unpaired, two-tailed Student's t test). Data from all panels is representative of at least 2 independent experiments.
Based on its ability to selectively potentiate IL-10 production by a mechanism that appears temporally distinct from CREB activation, BRD6989 was prioritized for MOA studies.

In data set [1] the test system is naïve, splenic CD4+ T cells. As to the kind of experiment: IL-10 production during ex vivo differentiation of Tregs. It counts as cell-based. As for the experimental part: FIG. 10—Cellular activities of CDK8 inhibitors. […] (b) Effect of CDK7 inhibitor THZ1 on viability and IL-10 production of R848-stimulated BMDCs (each point corresponds to mean±S.D.; n=4 biological replicates from 1 independent experiment). (c) IL-10 levels were quantified in tissue culture media generated during differentiation of naïve, splenic CD4+ T cells into Treg's in the presence of dCA (0.1 μM) or BRD6989 (5 μM) (each point correspond to mean±S.D.; n=3 biological replicates from 1 independent experiment; *, P<0.05; n.s., not significant using one-way ANOVA with Dunnett's post-test). Data from all panels is representative of at least 2 independent experiments.
Pre-treatment with these CDK8/19 inhibitors recapitulated the IL-10 potentiating activity of BRD6989 in both BMDCs (FIG. 9b) along with human DCs derived from two independent donors in the context of R848 stimulation (FIGS. 9c and 10a).

The next data set deals with responder CD4+ T cells. As to the kind of experiment: Treg suppression of responder CD4+ T cell proliferation in vitro. The format is cell-based, mouse. As to conditions: Tregs generated in the presence of CDK8 inhibitor. As for the experimental part:
FIG. 19—Suppressing T-cell proliferation in vitro. Treg cells are co-cultured at increasing dilutions with CFSE-labeled responder CD4+ T cells and their ability to suppress responder T cell proliferation upon anti-CD3/CD28 stimulation is assessed. Naive CD4+ T cells from Foxp3IRES-GFP mice were cultured under either optimal conditions for Treg differentiation (Treg Hi) or sub-optimal Treg differentiation conditions in the presence of BRD6989. The resulting GFP+ Treg cells were sorted by FACS. […] Assay was performed as described in eLife 2015; 4:e05920.
Imbalances between anti-inflammatory (FoxP3+ Treg) and pro-inflammatory (TH1 and TH17) CD4+ T cell lineages can lead to pathogenic inflammations in a number of diseases contexts. Therapeutic strategies that enhance FoxP3+ Treg differentiation and/or function are being pursued for treatment of immune and inflammatory disorders. Treatment of naïve CD4+ T cells in the presence of multiple structural classes of CDK8 inhibitors can enhance differentiation into FoxP3+Tregs (FIG. 16).

For data set [2], the system named is Zymosan A-stimulated BMDCs. As to the kind of experiment: Viability of zymosan A-stimulated BMDCs. The format is cell-based, mouse. The source says: (§1) The pyridinyl tetrahydroquinoline BRD6989 (10) emerged as a prioritized hit in the screen (FIG. 2a and Table 2). […] Thus, BRD6989 enhances IL-10 production in activated human and murine macrophages and dendritic cells by a mechanism that appears most pronounced following stimulation of toll-like receptors-7 (TLR7) and TLR8 by R848.

In data set [3] the test system is mouse bone marrow-derived macrophages (BMDMs). As to the kind of experiment: IL-10 production in BMDMs activated with Zymosan A or R848. It counts as cell-based.
Source text: as §1

In another data set the target is Cyclin C/CDK8 (Homo sapiens, UniProt P49336). As to the kind of experiment: Binding to Cyclin C/CDK8 complex. From the text: Given that the pyridine core of BRD6989 is a common kinase-binding motif (Xing et al., J Comput Aided Mol Des 28:13-23, 2014), its activity against 414 kinases was profiled using a series of binding and activity assays. […] Binding of BRD6989 to CDK8, and its paralog CDK19, was confirmed using an orthogonal kinase-profiling format.
Sequence of Cyclin C/CDK8 (P49336 whole entry, species assumed): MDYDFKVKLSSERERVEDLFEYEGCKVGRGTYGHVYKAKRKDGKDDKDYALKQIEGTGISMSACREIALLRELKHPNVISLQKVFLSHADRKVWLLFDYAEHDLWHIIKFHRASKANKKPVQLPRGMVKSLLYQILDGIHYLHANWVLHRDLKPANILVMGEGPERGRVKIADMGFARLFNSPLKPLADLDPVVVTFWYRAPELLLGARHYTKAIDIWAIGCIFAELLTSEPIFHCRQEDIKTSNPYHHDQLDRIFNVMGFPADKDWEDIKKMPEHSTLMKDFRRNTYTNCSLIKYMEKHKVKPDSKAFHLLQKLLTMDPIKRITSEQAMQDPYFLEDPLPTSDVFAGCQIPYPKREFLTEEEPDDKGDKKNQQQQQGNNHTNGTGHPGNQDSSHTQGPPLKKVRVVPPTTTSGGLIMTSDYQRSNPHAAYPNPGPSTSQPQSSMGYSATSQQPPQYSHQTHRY
Sequence of Cyclin C/CDK8 (P24863 whole entry partner, species assumed): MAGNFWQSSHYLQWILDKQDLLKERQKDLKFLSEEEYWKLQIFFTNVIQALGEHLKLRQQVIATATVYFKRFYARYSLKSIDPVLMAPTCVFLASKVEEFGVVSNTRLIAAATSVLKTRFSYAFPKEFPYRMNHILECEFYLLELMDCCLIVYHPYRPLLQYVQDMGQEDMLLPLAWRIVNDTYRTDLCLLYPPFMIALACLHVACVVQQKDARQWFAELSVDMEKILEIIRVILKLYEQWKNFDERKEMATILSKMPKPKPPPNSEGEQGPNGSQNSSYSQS

As a reminder, the IC50 is the concentration at which inhibition is half-maximal. The low end stands for higher potency, the high end for lower potency. As to `CC1CCc2nc(N)c(C#N)c(-c3cccnc3)c2C1` (stereo not drawn) [BRD6989], in the data set on R848-stimulated BMDCs, the “IL-10 mRNA levels” value was “sustained increase beginning at 4 hours and extending to 24 hours”. In addition, in data set [1], the “IL-10 production during Treg differentiation” value is on record as “neither dCA nor BRD6989 dramatically increased IL-10 production”. The “suppression of CD4+ T cell proliferation by inhibitor-induced Tregs” value in the data set on responder CD4+ T cells is recorded as “suppressed the proliferation of co-cultured responder CD4+ T cells in vitro at each dilution”. In addition, the cell viability result in data set [2] was “only modestly reducing cell viability; also recorded: does not significantly reduce the viability”. Further, the IL-10 production result in data set [3] is “increased IL-10 production; also recorded: up-regulates IL-10 production”. The compound also yielded an IC50 on Cyclin C/CDK8 of roughly 200 nM.
